According to patent publication US20220403001A1, “PDE5 DERIVED REGULATORY CONSTRUCTS AND METHODS OF USE IN IMMUNOTHERAPY” (Obsidian Therapeutics, Inc., priority 2018, published 2022):
Like-named read-outs stand apart in the source and are kept apart here.

Tests used:
[1] = test system: hPDE5 mutants; assay: GFP expression (MFI) by FACS in HEK293 cells expressing hPDE5 constructs; conditions: for EC50: read-out: EC50 of ligand dependent stabilization, HEK293 cells expressing OT-001076, OT-001083, OT-001084
[2] = target: hPDE5 Y612A (Homo sapiens, UniProt O76074, Y612A); conditions: Y612A ablates hydrogen bonding and hydrophobic bonding potential; Corbin et al. 2006; cited from earlier work
[3] = approved dose, cited from earlier work
[4] = target: hPDE5 Y612F (Homo sapiens, UniProt O76074, Y612F); conditions: Y612F ablates hydrogen bonding potential; Corbin et al. 2006; cited from earlier work
[5] = Plasma PK of Tadalafil and Vardenafil after a single oral dose (LC/MS/MS); assay type: in vivo, mice; conditions: mouse, read-out: Plasma levels; for concentration at 1 h: 1 hour post dose; for concentration at 2 h: 2 hours post dose; for concentration at 4 h: 4 hours post dose; for concentration at 8 h: 8 hours post dose; for concentration at 12 h: 12 hours post dose; for concentration at 16 h: 16 hours post dose; for concentration at 24 h: 24 hours post dose
Protocol: Plasma samples collected over time and PDE5 inhibitor concentrations were determined by LC/MS/MS (Table 60). The Vardenafil/Tadalafil levels detected in the plasma declined over time and were commensurate with the initial dose orally administered to the animal.

[6] = test system: hPDE5 mutants; assay: Immunoblot (AcGFP antibody) of hPDE5-AcGFP constructs in HEK293 cells; assay type: cell-based, human; conditions: compared with wildtype OT-001075
From the text: Puro and used as a control.
Cell lysates obtained from hPDE5N construct expressing cells were immunoblotted using the AcGFP antibody (Clonetech, Mountain View, Calif.). Samples were also immunoblotted with the GAPDH antibody to ensure uniform protein loading.

[7] = target: T1, hPDE5 mutants (Homo sapiens, UniProt O76074); assay: GFP MFI by FACS in HCT116 cells transduced with hPDE5 constructs; assay type: cell-based; conditions: hotspot constructs; for Vardenafil Stabilization ratio: 1 μM Vardenafil; for Sildenafil Stabilization ratio: 10 μM Sildenafil; for GFP by FACS, Sildenafil 10 μM / GFP by FACS, Vardenafil 1 μM: HCT116
[8] = test system: hPDE5 mutants; assay: as above; assay type: cell-based, human; conditions: hotspot constructs; for Sildenafil Destabilizing mutation coefficient: DMSO control of Sildenafil; for Sildenafil Destabilizing mutation coefficient / Vardenafil Destabilizing mutation coefficient: vs OT-001075; for Vardenafil Destabilizing mutation coefficient: DMSO control of Vardenafil; for GFP by FACS, Sildenafil 0 μM (DMSO): HCT116, DMSO control of Sildenafil; for GFP by FACS, Vardenafil 0 μM (DMSO): HCT116, DMSO control of Vardenafil
[9] = target: T1, hPDE5 mutants; assay: Western blot of AcGFP/GFP protein levels in HCT 116 cells expressing hPDE5 mutants; assay type: cell-based; design: GFP protein levels (western blot); fused on or other part: AcGFP reporter through a linker; conditions: vardenafil vs DMSO, HCT 116, R732 mutants
Protocol: Protein expression analysis of the combination mutants was performed in parallel via western blot. […] GAPDH levels were also analyzed to ensure even protein loading.

[10] = NSG mice, single oral dose 10 mg/kg
[11] = NSG mice, single oral dose 30 mg/kg
[12] = NSG mice, single oral dose 100 mg/kg
[13] = CD-1 mice, single oral dose 10 mg/kg
[14] = CD-1 mice, single oral dose 100 mg/kg
[15] = Sildenafil 0.0005 μM, 48 h, HEK293
[16] = Sildenafil 3.33 μM, 48 h, HEK293
[17] = Sildenafil 10 μM, 48 h, HEK293 (dose titration)
[18] = Sildenafil 10 μM, 48 h, HEK293 (time course)
[19] = Vardenafil 0.0005 μM, 48 h, HEK293
[20] = Vardenafil 3.33 μM, 48 h, HEK293
[21] = Vardenafil (10 μM), 48 h, Table 25, cell line not given in table

CCCc1nn(C)c2c(=O)[nH]c(-c3cc(S(=O)(=O)N4CCN(C)CC4)ccc3OCC)nc12 [Sildenafil]
EC50 ([1]; 48 h): […] | effect of Y612A mutation on inhibition of hPDE5 catalytic activity by ligand [2]: to a lesser extent | Cmax ([3]; IV): 1000 nM | Cmax ([3]; PO): 1000 nM | effect of Y612F mutation on inhibition of hPDE5 activity by ligand [4]: increases the inhibition of hPDE5 activity

CN1CC(=O)N2[C@H](c3ccc4c(c3)OCO4)c3[nH]c4ccccc4c3C[C@@H]2C1=O [Tadalafil]
Cmax ([3]; PO): 1500 nM | Duration of action [3]: 24 to 36 h | concentration at 1 h [5, 10]: 6800 nM | concentration at 2 h [5, 10]: 5400 nM | concentration at 4 h [5, 10]: 3900 nM | concentration at 8 h [5, 10]: 900 nM | concentration at 12 h [5, 10]: 100 nM | concentration at 16 h [5, 10]: 0 nM | concentration at 1 h [5, 11]: 19800 nM | concentration at 2 h [5, 11]: 17600 nM | concentration at 4 h [5, 11]: 12100 nM | concentration at 8 h [5, 11]: 4400 nM | concentration at 12 h [5, 11]: 500 nM | concentration at 16 h [5, 11]: 100 nM | concentration at 24 h [5, 11]: 0 nM | concentration at 1 h [5, 12]: 53300 nM | concentration at 2 h [5, 12]: 44700 nM | concentration at 4 h [5, 12]: 34800 nM | concentration at 8 h [5, 12]: 13700 nM | concentration at 12 h [5, 12]: 5600 nM | concentration at 16 h [5, 12]: 1500 nM | concentration at 24 h [5, 12]: 100 nM

CCCc1nc(C)c2c(=O)[nH]c(-c3cc(S(=O)(=O)N4CCN(CC)CC4)ccc3OCC)nn12 [Vardenafil]
EC50 ([1]; 48 h): 0.1 to 0.3 µM | Cmax ([3]; PO): 100 nM | concentration at 1 h [5, 13]: 160 nM | concentration at 2 h [5, 13]: 30 nM | concentration at 4 h [5, 13]: 20 nM | concentration at 1 h [5, 14]: 7810 nM | concentration at 2 h [5, 14]: 3040 nM | concentration at 4 h [5, 14]: 3320 nM | concentration at 8 h [5, 14]: 1180 nM | concentration at 12 h [5, 14]: 40 nM

OT-001076: hPDE5-F736A AcGFP construct
MFI [1, 15]: 6848 | Stabilization ratio [1, 15]: 0.97 | MFI [1, 16]: 49220 | Stabilization ratio [1, 16]: 7.00 | MFI ([1]; Sildenafil 10 μM, 2 h, HEK293): 12088 | Stabilization ratio ([1]; Sildenafil 10 μM, 2 h, HEK293): 1.54 | MFI ([1]; Sildenafil 10 μM, 4 h, HEK293): 14046 | Stabilization ratio ([1]; Sildenafil 10 μM, 4 h, HEK293): 1.77 | MFI ([1]; Sildenafil 10 μM, 6 h, HEK293): 16710 | Stabilization ratio ([1]; Sildenafil 10 μM, 6 h, HEK293): 2.11 | MFI ([1]; Sildenafil 10 μM, 16 h, HEK293): 39029 | Stabilization ratio ([1]; Sildenafil 10 μM, 16 h, HEK293): 4.93 | MFI ([1]; Sildenafil 10 μM, 24 h, HEK293): 51534 | Stabilization ratio ([1]; Sildenafil 10 μM, 24 h, HEK293): 6.51 | MFI [1, 17]: 67084 | Stabilization ratio [1, 17]: 9.53 | MFI [1, 18]: 70811 | Stabilization ratio [1, 18]: 8.94 | MFI [1, 19]: 11770 | Stabilization ratio [1, 19]: 1.04 | MFI [1, 20]: 172990 | Stabilization ratio [1, 20]: 15.33 | MFI ([1]; Vardenafil 10 μM, 48 h, HEK293): 188068 | Stabilization ratio ([1]; Vardenafil 10 μM, 48 h, HEK293): 16.66 | Stabilization ratio ([1]; Vardenafil (1 μM), 48 h, Table 25, cell line not given in table): 11.52 | MFI ([1]; Vardenafil (1 μM), 48 h, Table 25, cell line not given in table (HEK293, HCT-116, SKOV-3)): 110603 | MFI [1, 21]: 143351 | Stabilization ratio [1, 21]: 14.93 | hPDE5-GFP levels with DMSO treatment (immunoblot) [6]: lower than in the wildtype hPDE5 construct

OT-001202: hPDE5 R732M AcGFP construct
Vardenafil Stabilization ratio [7]: 1.07 | Sildenafil Stabilization ratio [7]: 1.76 | GFP by FACS, Sildenafil 10 μM [7]: 503 | GFP by FACS, Vardenafil 1 μM [7]: 337 | Sildenafil Destabilizing mutation coefficient [8]: 0.29 | Vardenafil Destabilizing mutation coefficient [8]: 1.96 | GFP by FACS, Sildenafil 0 μM (DMSO) [8]: 285 | GFP by FACS, Vardenafil 0 μM (DMSO) [8]: 316 | GFP protein levels (western blot) [9]: strong stabilization of GFP levels

OT-001203: hPDE5 R732C AcGFP construct
Vardenafil Stabilization ratio [7]: 0.66 | Sildenafil Stabilization ratio [7]: 1.42 | GFP by FACS, Sildenafil 10 μM [7]: 707 | GFP by FACS, Vardenafil 1 μM [7]: 349 | Sildenafil Destabilizing mutation coefficient [8]: 0.5 | Vardenafil Destabilizing mutation coefficient [8]: 3.27 | GFP by FACS, Sildenafil 0 μM (DMSO) [8]: 499 | GFP by FACS, Vardenafil 0 μM (DMSO) [8]: 526 | GFP protein levels (western blot) [9]: strong stabilization of GFP levels

OT-001204: hPDE5 R732K AcGFP construct
Vardenafil Stabilization ratio [7]: 3.74 | Sildenafil Stabilization ratio [7]: 4.64 | GFP by FACS, Sildenafil 10 μM [7]: 765 | GFP by FACS, Vardenafil 1 μM [7]: 423 | Sildenafil Destabilizing mutation coefficient [8]: 0.17 | Vardenafil Destabilizing mutation coefficient [8]: 0.7 | GFP by FACS, Sildenafil 0 μM (DMSO) [8]: 165 | GFP by FACS, Vardenafil 0 μM (DMSO) [8]: 113 | GFP protein levels (western blot) [9]: Modest ligand dependent stabilization of GFP levels
